Key:
wild oat (Avena fatua) = assay: Test C postemergence; type: in vivo; settings: Avena fatua, post-emergence, Postemergence, scale 0 to 100, read-out: Plant response rating, Oat, Wild
[1] = system: Italian ryegrass (Lolium multiflorum); assay: Test C postemergence; type: in vivo; settings: Lolium multiflorum, post-emergence, 336 h, Postemergence, scale 0 to 100, read-out: Plant response rating, Ryegrass, Italian
[2] = system: pigweed (Amaranthus retroflexus); assay: Test C postemergence; type: in vivo; settings: Amaranthus retroflexus, post-emergence, 336 h, Postemergence, scale 0 to 100, read-out: Plant response rating, Pigweed
[3] = system: large (Lg) crabgrass (Digitaria sanguinalis); assay: Test C postemergence; type: in vivo; settings: Digitaria sanguinalis, post-emergence, 336 h, Postemergence, scale 0 to 100, read-out: Plant response rating, Crabgrass, Large
corn (Zea mays) = assay: Test C postemergence; type: in vivo; settings: Zea mays, post-emergence, 336 h, Postemergence, scale 0 to 100
[4] = system: winter wheat (Triticum aestivum); assay: Test C postemergence; type: in vivo; settings: Triticum aestivum, post-emergence, 336 h, Postemergence, scale 0 to 100, read-out: Plant response rating, Wheat
[5] = system: galium (catchweed bedstraw, Galium aparine); assay: Test C postemergence; type: in vivo; settings: Galium, post-emergence, 336 h, Postemergence, scale 0 to 100, read-out: Plant response rating, Galium
kochia (Kochia scoparia) = assay: Test C postemergence; type: in vivo; settings: Bassia scoparia, post-emergence, Postemergence, scale 0 to 100, read-out: Plant response rating, Kochia
[6] = system: waterhemp (common waterhemp, Amaranthus rudis); assay: Test C postemergence; type: in vivo; settings: Amaranthus tuberculatus, post-emergence, Postemergence, scale 0 to 100, read-out: Plant response rating, Waterhemp
[7] = system: ragweed (common ragweed, Ambrosia elatior); assay: Test C postemergence; type: in vivo; settings: Ambrosia artemisiifolia, post-emergence, 336 h, Postemergence, scale 0 to 100, read-out: Plant response rating, Ragweed
[8] = system: morningglory (Ipomoea coccinea); assay: Test C postemergence; type: in vivo; settings: Ipomoea, post-emergence, 336 h, Postemergence, scale 0 to 100, read-out: Plant response rating, Morningglory
[9] = system: johnsongrass (Sorghum halepense); assay: Test C postemergence; type: in vivo; settings: Sorghum halepense, post-emergence, 336 h, Postemergence, scale 0 to 100, read-out: Plant response rating, Johnsongrass
soybean (Glycine max) = assay: Test C postemergence; type: in vivo; settings: Glycine max, post-emergence, Postemergence, scale 0 to 100, read-out: Plant response rating, Soybean
[10] = system: barnyardgrass (Echinochloa crus-galli); assay: Test C postemergence; type: in vivo; settings: Echinochloa crus-galli, post-emergence, Postemergence, scale 0 to 100, read-out: Plant response rating, Barnyardgrass
[11] = system: oilseed rape (Brassica napus); assay: Test C postemergence; type: in vivo; settings: Brassica napus, post-emergence, Postemergence, scale 0 to 100, read-out: Plant response rating, Oilseed Rape

N#Cc1cccc(Oc2ncc(Cl)cn2)c1Oc1ncc(C(F)(F)F)cn1 [Compound 38, 3-[(5-chloro-2-pyrimidinyl)oxy]-2-[[5-(trifluoromethyl)-2-pyrimidinyl]oxy]-benzonitrile]
melting point: 101 to 103 °C
pest or weed control at 31 g/ha (wild oat (Avena fatua); 31 g ai/ha): 5%
pest or weed control at 62 g/ha (wild oat (Avena fatua); 62 g ai/ha): 10%
pest or weed control at 125 g/ha (wild oat (Avena fatua); 125 g ai/ha): 10%
pest or weed control at 31 g/ha ([1]; 31 g ai/ha): 5%
pest or weed control at 62 g/ha ([1]; 62 g ai/ha): 5%
pest or weed control at 125 g/ha ([1]; 125 g ai/ha): 5%
pest or weed control at 31 g/ha ([2]; 31 g ai/ha): 85%
pest or weed control at 62 g/ha ([2]; 62 g ai/ha): 90%
pest or weed control at 125 g/ha ([2]; 125 g ai/ha): 90%
pest or weed control at 16 g/ha ([3]; 16 g ai/ha): 5%
pest or weed control at 31 g/ha ([3]; 31 g ai/ha): 10%
pest or weed control at 62 g/ha ([3]; 62 g ai/ha): 10%
pest or weed control at 125 g/ha ([3]; 125 g ai/ha): 30%
Corn plant response rating (crop injury, 0 = no effect, 100 = complete kill) at 16 g/ha (corn (Zea mays); 16 g ai/ha): 10%
Corn plant response rating (crop injury, 0 = no effect, 100 = complete kill) at 31 g/ha (corn (Zea mays); 31 g ai/ha): 20%
Corn plant response rating (crop injury, 0 = no effect, 100 = complete kill) at 62 g/ha (corn (Zea mays); 62 g ai/ha): 15%
Corn plant response rating (crop injury, 0 = no effect, 100 = complete kill) at 125 g/ha (corn (Zea mays); 125 g ai/ha): 15%
plant injury at 31 g/ha ([4]; 31 g ai/ha): 0%
plant injury at 62 g/ha ([4]; 62 g ai/ha): 0%
plant injury at 125 g/ha ([4]; 125 g ai/ha): 0%
pest or weed control at 16 g/ha ([5]; 16 g ai/ha): 70%
pest or weed control at 31 g/ha ([5]; 31 g ai/ha): 85%
pest or weed control at 62 g/ha ([5]; 62 g ai/ha): 90%
pest or weed control at 125 g/ha ([5]; 125 g ai/ha): 90%
pest or weed control at 16 g/ha (kochia (Kochia scoparia); 16 g ai/ha): 90%
pest or weed control at 31 g/ha (kochia (Kochia scoparia); 31 g ai/ha): 90%
pest or weed control at 62 g/ha (kochia (Kochia scoparia); 62 g ai/ha): 90%
pest or weed control at 125 g/ha (kochia (Kochia scoparia); 125 g ai/ha): 95%
pest or weed control at 31 g/ha ([6]; 31 g ai/ha): 75%
pest or weed control at 62 g/ha ([6]; 62 g ai/ha): 85%
pest or weed control at 125 g/ha ([6]; 125 g ai/ha): 95%
pest or weed control at 31 g/ha ([7]; 31 g ai/ha): 55%
pest or weed control at 62 g/ha ([7]; 62 g ai/ha): 70%
pest or weed control at 125 g/ha ([7]; 125 g ai/ha): 50%
pest or weed control at 31 g/ha ([8]; 31 g ai/ha): 85%
pest or weed control at 62 g/ha ([8]; 62 g ai/ha): 85%
pest or weed control at 125 g/ha ([8]; 125 g ai/ha): 90%
pest or weed control at 16 g/ha ([9]; 16 g ai/ha): 5%
pest or weed control at 31 g/ha ([9]; 31 g ai/ha): 5%
pest or weed control at 62 g/ha ([9]; 62 g ai/ha): 5%
pest or weed control at 125 g/ha ([9]; 125 g ai/ha): 10%
plant injury at 31 g/ha (soybean (Glycine max); 31 g ai/ha): 85%
plant injury at 62 g/ha (soybean (Glycine max); 62 g ai/ha): 50%
plant injury at 125 g/ha (soybean (Glycine max); 125 g ai/ha): 80%
pest or weed control at 16 g/ha ([10]; 16 g ai/ha): 10%
pest or weed control at 31 g/ha ([10]; 31 g ai/ha): 20%
pest or weed control at 62 g/ha ([10]; 62 g ai/ha): 20%
pest or weed control at 125 g/ha ([10]; 125 g ai/ha): 35%
plant injury at 31 g/ha ([11]; 31 g ai/ha): 20%
plant injury at 62 g/ha ([11]; 62 g ai/ha): 25%
plant injury at 125 g/ha ([11]; 125 g ai/ha): 5%

From patent US20170190671A1, “BIS(ARYL)CATECHOL DERIVATIVES AS HERBICIDES” (E I DU PONT DE NEMOURS AND COMPANY, priority 2014, published 2017)
